Among the data in patent US20090156646A1, “PYRIDYLPHENOL COMPOUND AND USE THEREOF” (TAKEDA PHARMACEUTICAL COMPANY LIMITED, priority 2005, published 2009) are IC50 and melting point values, retold here.

Data set [1] concerns the target T1, human metastin receptor hOT7T175 (Homo sapiens, UniProt Q969F8, L364H).
T1 construct: encoding the entire length of human metastin receptor hOT7T175; expressed in transfected cells; host or cells: CHO/dhFr- cells (ATCC #CRL-9096) stably transfected with pAKKO-hOT7T175; clone h175-16 was used as whole cells for FLIPR
Description: binding inhibiting activity: 125I-metastin (40-54) binding to cell membrane fraction of h175 KB34 cells. Particulars: room temperature 60 minutes, read-out: binding inhibiting activity, represented by the IC50 value. Put shortly: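 Membranes came from CHO/dhfr− cells stably expressing human hOT7T175 (clone h175 KB34) and were diluted 250-fold for use. Binding of 125I-metastin (40-54) was run in 20 mM Tris, 2.5 mM magnesium acetate and 2 mM EGTA, pH 7.4, with protease inhibitors, either without BSA or with 1 mg/ml BSA.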

T1 sequence (Q969F8 whole entry L364H): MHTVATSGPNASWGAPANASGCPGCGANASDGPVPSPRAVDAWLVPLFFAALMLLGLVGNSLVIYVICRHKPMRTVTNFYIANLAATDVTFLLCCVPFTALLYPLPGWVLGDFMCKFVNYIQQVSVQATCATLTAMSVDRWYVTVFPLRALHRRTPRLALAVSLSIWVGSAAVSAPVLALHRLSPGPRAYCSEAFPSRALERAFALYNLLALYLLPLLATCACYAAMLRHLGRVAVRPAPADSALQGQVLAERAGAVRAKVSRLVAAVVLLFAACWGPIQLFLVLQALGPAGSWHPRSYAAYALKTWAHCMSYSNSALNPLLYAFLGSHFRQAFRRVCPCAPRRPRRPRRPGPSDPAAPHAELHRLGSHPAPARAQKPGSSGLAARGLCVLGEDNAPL

For the molecule `Cl.N#Cc1c(-c2cccc(C(=O)NCCN)c2)cc(-c2ccc(F)cc2O)nc1NC(=O)c1cccs1` [Example 81, N-[4-(3-{[(2-aminoethyl)amino]carbonyl}phenyl)-3-cyano-6-(4-fluoro-2-hydroxyphenyl)pyridin-2-yl]thiophene-2-carboxamide hydrochloride], the melting point was in the range of 228 to 229 °C. Further, the IC50 in data set [1] is at most 10 µM.
For `Cl.N#Cc1c(-c2cccc(NC(=O)[C@H]3CCCN3)c2)cc(-c2ccc(Cl)cc2O)nc1NC(=O)c1nccs1` [Example 294, N-(3-{6-(4-chloro-2-hydroxyphenyl)-3-cyano-2-[(1,3-thiazol-2-ylcarbonyl)amino]pyridin-4-yl}phenyl)-D-prolinamide hydrochloride], the melting point was 222 to 228 °C. Also, the IC50 in data set [1] was at most 10 µM.
The matching figures for `CCC(N)CC(=O)Nc1cccc(-c2cc(-c3ccc(F)cc3O)nc(NC(=O)c3ccco3)c2C#N)c1.Cl` (stereo not drawn) [Example 264, N-[4-{3-[(3-aminopentanoyl)amino]phenyl}-3-cyano-6-(4-fluoro-2-hydroxyphenyl)pyridin-2-yl]-2-furamide hydrochloride]: 212 to 214 °C and at most 10 µM.
In turn, `Cl.N#Cc1c(-c2cccc(NC(=O)C3CCNC3)c2)cc(-c2ccc(Cl)cc2O)nc1NC(=O)c1ccco1` (stereo not drawn) [Example 241, N-{3-[6-(4-chloro-2-hydroxyphenyl)-3-cyano-2-(2-furoylamino)pyridin-4-yl]phenyl}pyrrolidine-3-carboxamide hydrochloride] registered a melting point of 226 to 235 °C. For the same molecule, the concentration for half-maximal inhibition (IC50) in data set [1] is at most 10 µM.
As to `CC(CC(=O)Nc1cccc(-c2cc(-c3ccc(F)cc3O)nc(NC(=O)c3ccco3)c2C#N)c1)N(C)C.Cl` (stereo not drawn) [Example 338, N-[3-cyano-4-(3-{[3-(dimethylamino)butanoyl]amino}phenyl)-6-(4-fluoro-2-hydroxyphenyl)pyridin-2-yl]-2-furamide hydrochloride], the melting point fell in the range of 233 to 234 °C. Moreover, the IC50 in data set [1] was at most 10 µM.
The molecule `COC[C@H](N)C(=O)Nc1cccc(-c2cc(-c3ccc(F)cc3O)nc(NC(=O)c3ccco3)c2C#N)c1.Cl` [Example 301, N-(3-cyano-6-(4-fluoro-2-hydroxyphenyl)-4-{3-[(O-methyl-L-seryl)amino]phenyl}pyridin-2-yl)-2-furamide hydrochloride] returned a melting point of 224 to 230 °C. Moreover, the half-inhibitory concentration (IC50) in data set [1] is at most 10 µM.
As to `COc1ccccc1C(=O)Nc1nc(-c2ccc(Cl)cc2O)cc(-c2cccc(C(=O)NCCCn3ccnc3)c2)c1C#N.Cl` [Example 70, N-{6-(4-chloro-2-hydroxyphenyl)-3-cyano-4-[3-({[3-(1H-imidazole-1-yl)propyl]amino}carbonyl)phenyl]pyridin-2-yl}-2-methoxybenzamide hydrochloride], the melting point is 234 to 237 °C. Further, the half-maximal inhibitory concentration (IC50) in data set [1] is at most 10 µM.
For the molecule `Cl.N#Cc1c(-c2cccc(NC(=O)[C@H]3CCCC[C@H]3N)c2)cc(-c2ccc(F)cc2O)nc1NC(=O)c1ccco1` [Example 283, N-{4-[3-({[(1S,2R)-2-aminocyclohexyl]carbonyl}amino)phenyl]-3-cyano-6-(4-fluoro-2-hydroxyphenyl)pyridin-2-yl}-2-furamide hydrochloride], the melting point fell in the range of 237 to 239 °C. For the same molecule, the IC50 in data set [1] was at most 10 µM.
The corresponding values for `COc1ccccc1C(=O)Nc1nc(-c2ccc(F)cc2O)cc(-c2cccc(NC(=O)CCN)c2)c1C#N.Cl` [Example 247, N-[4-[3-(β-alanylamino)phenyl]-3-cyano-6-(4-fluoro-2-hydroxyphenyl)pyridin-2-yl]-2-methoxybenzamide hydrochloride] are 232 to 233 °C and at most 10 µM.
Consider `Cl.N#Cc1c(-c2cccc(C(=O)NC3CCNC3)c2)cc(-c2ccc(F)cc2O)nc1NC(=O)c1ccco1` (stereo not drawn) [Example 76, N-(3-cyano-6-(4-fluoro-2-hydroxyphenyl)-4-{3-[(pyrrolidin-3-ylamino)carbonyl]phenyl}pyridin-2-yl)-2-furamide hydrochloride], for which the melting point lay within 225 to 226 °C. Further, the 50% inhibitory concentration (IC50) in data set [1] was at most 10 µM.
The corresponding values for `Cl.N#Cc1c(-c2cccc(NC(=O)[C@H]3CCCN3)c2)cc(-c2ccc(Cl)cc2O)nc1NC(=O)c1ccno1` [Example 295, N-(3-{6-(4-chloro-2-hydroxyphenyl)-3-cyano-2-[(isoxazol-5-ylcarbonyl)amino]pyridin-4-yl}phenyl)-D-prolinamide hydrochloride] are ≥ 250 °C (dec.) and at most 10 µM.
The matching figures for `Cl.N#Cc1c(-c2cccc(CNC(=O)CN)c2)cc(-c2ccccc2O)nc1NC(=O)c1cccs1` [Example 43, N-[3-cyano-4-{3-[(glycylamino)methyl]phenyl}-6-(2-hydroxyphenyl)pyridin-2-yl]thiophene-2-carboxamide hydrochloride]: 181 to 186 °C and at most 10 µM.
The matching figures for `CN1C[C@H](O)C[C@H]1C(=O)Nc1cccc(-c2cc(-c3ccc(F)cc3O)nc(NC(=O)c3ccco3)c2C#N)c1.Cl` [Example 299, (4R)—N-{3-[3-cyano-6-(4-fluoro-2-hydroxyphenyl)-2-(2-furoylamino)pyridin-4-yl]phenyl}-4-hydroxy-1-methyl-L-prolinamide hydrochloride]: 215 to 217 °C and at most 10 µM.
The molecule `CCNC(CC)CC(=O)Nc1cccc(-c2cc(-c3ccc(F)cc3O)nc(NC(=O)c3ccco3)c2C#N)c1.Cl` (stereo not drawn) [Example 308, N-[3-cyano-4-(3-{[3-(ethylamino)pentanoyl]amino}phenyl)-6-(4-fluoro-2-hydroxyphenyl)pyridin-2-yl]-2-furamide hydrochloride] had a melting point of 233 to 238 °C. In addition, in data set [1], the IC50 was at most 10 µM.
In the case of `COc1ccc(C(=O)Nc2nc(-c3ccc(Cl)cc3O)cc(-c3cccc(NC(=O)CCN)c3)c2C#N)cc1.Cl` [Example 252, N-[4-[3-(β-alanylamino)phenyl]-6-(4-chloro-2-hydroxyphenyl)-3-cyanopyridin-2-yl]-4-methoxybenzamide hydrochloride], the melting point was 193 to 197 °C. Also, the concentration for half-maximal inhibition (IC50) in data set [1] is at most 10 µM.
On to `Cl.N#Cc1c(-c2cccc(C(=O)N[C@H]3CCCC[C@H]3N)c2)cc(-c2ccc(F)cc2O)nc1NC(=O)c1ccco1` (racemic) [Example 280, N-{4-[3-({[(1SR,2RS)-2-aminocyclohexyl]amino}carbonyl)phenyl]-3-cyano-6-(4-fluoro-2-hydroxyphenyl)pyridin-2-yl}-2-furamide hydrochloride], for which the melting point lay within 250 to 252 °C. Also, in data set [1], the half-maximal inhibitory concentration (IC50) is at most 10 µM.
The matching figures for `COc1ccccc1C(=O)Nc1nc(-c2ccc(F)cc2O)cc(-c2cccc(C(=O)NCCCn3ccnc3)c2)c1C#N.Cl` [Example 245, N-{3-cyano-6-(4-fluoro-2-hydroxyphenyl)-4-[3-({[3-(1H-imidazol-1-yl)propyl]amino}carbonyl)phenyl]pyridin-2-yl}-2-methoxybenzamide hydrochloride]: 234 to 235 °C and at most 10 µM.
The matching figures for `Cl.N#Cc1c(-c2cccc(C(=O)N3CCC(N)CC3)c2)cc(-c2ccccc2O)nc1NC(=O)c1cccs1` [Example 5, N-[4-{3-[(4-aminopiperidine-1-yl)carbonyl]phenyl}-3-cyano-6-(2-hydroxyphenyl)pyridin-2-yl]thiophene-2-carboxamide hydrochloride]: 215 to 218 °C and at most 10 µM.
